Several values for one entry are separate records, joined by “and”; a condition that tells them apart may be missing. Equal entries are not always repeated. Where two headings read alike, the source gives them in different places.
What was measured:
HepG2 cells = test: HepG2 cytotoxicity assay (Live/Dead staining); conditions: for Percentage of live HepG2 cells compared with diluent controls: replicates
Procedure, shortened: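 HepG2 cells (5000/well) treated with compounds at 1 to 20 µM, re-dosed with fresh compound every 24 h. Viability scored at 72 h by calcein-AM/ethidium homodimer (1 µM each, 10 min, 37 °C) live/dead staining under fluorescence microscopy.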

P. vivax schizonts = test: P. vivax liver stage assay, schizonts; type: cell-based, Plasmodium vivax; conditions: for Number of liverstage Schizonts per well: 20 µM, 8 dpi; for IC50: primary human hepatocytes, treatment day 5 to 8 post-infection, isolates 2 and 3
Procedure, shortened: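 Primary human hepatocytes (single donor, 25,000/well) infected with 14,000 P. vivax sporozoites per well from patient isolates; compounds (up to 20 µM) given daily from day 5 to day 8 post-infection. Schizonts counted by PvUIS4/DAPI confocal imaging; DAPI nuclei count used as toxicity measure.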

P. vivax hypnozoites = test: P. vivax liver stage assay, hypnozoites; type: cell-based, Plasmodium vivax; conditions: for Hypnozoites per well: Isolate 2, replicate wells (Figure 6d); for Number of liverstage hypnozoites per well: 20 µM, 8 dpi; for IC50: primary human hepatocytes, treatment day 5 to 8 post-infection, isolate 2
Procedure, shortened: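 Primary human hepatocytes infected with P. vivax sporozoites, then exposed to compound daily from day 5 to day 8 post-infection. Fixed cells stained with DAPI and PvUIS4 antibody; hypnozoites and schizonts counted by confocal imaging. MMV390048 at 20 µM served as schizont-eliminating control.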

HsNMT1 = target: T1, HsNMT1 (Homo sapiens, UniProt P30419); test: NMT activity assay (CPM detection of free CoA), HsNMT
T1 sequence (P30419 1-496): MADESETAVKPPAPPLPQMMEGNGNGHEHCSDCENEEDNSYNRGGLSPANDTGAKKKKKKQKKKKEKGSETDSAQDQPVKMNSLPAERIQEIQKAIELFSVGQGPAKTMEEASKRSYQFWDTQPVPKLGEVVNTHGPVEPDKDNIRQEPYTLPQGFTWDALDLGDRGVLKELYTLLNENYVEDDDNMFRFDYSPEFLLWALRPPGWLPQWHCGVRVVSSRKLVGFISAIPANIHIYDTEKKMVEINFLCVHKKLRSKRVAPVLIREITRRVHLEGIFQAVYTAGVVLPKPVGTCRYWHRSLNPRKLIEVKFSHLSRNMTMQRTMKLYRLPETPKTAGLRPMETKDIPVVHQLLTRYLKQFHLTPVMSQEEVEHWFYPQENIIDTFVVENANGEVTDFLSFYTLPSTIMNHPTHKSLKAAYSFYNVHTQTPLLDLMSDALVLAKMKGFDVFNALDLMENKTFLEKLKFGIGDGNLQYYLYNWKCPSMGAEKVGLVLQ

PvNMT = PvNMT (Plasmodium vivax, UniProt A5K1A2); test: NMT activity assay (CPM detection of free CoA), PvNMT; conditions: for SI: enzyme selectivity, HsNMT IC50/PvNMT IC50
Sequence of PvNMT (A5K1A2 entry or part of it): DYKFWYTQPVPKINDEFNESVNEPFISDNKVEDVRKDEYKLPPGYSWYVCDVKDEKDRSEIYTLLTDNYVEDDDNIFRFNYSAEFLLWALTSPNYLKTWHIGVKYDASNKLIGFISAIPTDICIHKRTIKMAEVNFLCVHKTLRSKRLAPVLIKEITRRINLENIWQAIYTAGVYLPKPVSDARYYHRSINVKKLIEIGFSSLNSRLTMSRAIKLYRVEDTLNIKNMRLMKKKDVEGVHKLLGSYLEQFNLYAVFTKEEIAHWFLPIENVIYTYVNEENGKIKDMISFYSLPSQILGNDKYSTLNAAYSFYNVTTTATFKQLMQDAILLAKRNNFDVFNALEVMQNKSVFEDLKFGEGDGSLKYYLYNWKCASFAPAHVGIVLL

[1] = isolate 1, technical replicates (Fig. 5b)
[2] = isolate 2, technical replicates (Fig. 5b)
[3] = isolate 3, technical replicates (Fig. 5b)
[4] = Plasmodium vivax, Hepatocyte, 120 h
[5] = isolate 1, technical replicates (Fig. 6C)
[6] = isolate 2, technical replicates (Fig. 6C)
[7] = isolate 3, technical replicates (Fig. 6C)
[8] = PvNMT IC50, mean of two or more determinations

Row | SMILES | Percentage of live HepG2 cells compared with diluent controls (HepG2 cells; 1 μM) | Percentage of live HepG2 cells compared with diluent controls (HepG2 cells; 2.5 μM) | Percentage of live HepG2 cells compared with diluent controls (HepG2 cells; 5 μM) | Percentage of live HepG2 cells compared with diluent controls (HepG2 cells; 10 μM) | Percentage of live HepG2 cells compared with diluent controls (HepG2 cells; 20 μM) | Number of liverstage Schizonts per well (P. vivax schizonts; [1]) | Number of liverstage Schizonts per well (P. vivax schizonts; [2]) | Number of liverstage Schizonts per well (P. vivax schizonts; [3]) | Schizonts per well (P. vivax schizonts; Isolate 2, 1.25 uM) | Schizonts per well (P. vivax schizonts; Isolate 2, 2.5 uM) | Schizonts per well (P. vivax schizonts; Isolate 2, 5 uM) | Schizonts per well (P. vivax schizonts; Isolate 3, 1.25 uM) | Schizonts per well (P. vivax schizonts; Isolate 3, 2.5 uM) | Schizonts per well (P. vivax schizonts; Isolate 3, 5 uM) | Schizonts per well (P. vivax schizonts; Isolate 3, 10 uM) | schizonts (fold change to DMSO) mean diff (P. vivax schizonts; isolate 1, 20 µM) | schizonts (fold change to DMSO) mean diff (P. vivax schizonts; isolate 2, 20 µM) | schizonts (fold change to DMSO) mean diff (P. vivax schizonts; isolate 3, 20 µM) | Hypnozoites per well (P. vivax hypnozoites; 1.25 uM) | Hypnozoites per well (P. vivax hypnozoites; 2.5 uM) | other results
1 | Fc1ccc(-c2ccnc(N3CCNCC3)c2)c(OCCc2cccnc2)c1 [Compound 12l] | 89.7539% and 87.5192% | 87.1294% and 87.1034% | 86.8955% and 86.7396% | 88.7665% and 86.09% | 76.2415% and 75.9816% | 0 per well (2×) and 1 per well | 4 per well and 7 per well and 1 per well | 2 per well and 7 per well | 11 per well and 13 per well and 18 per well | 11 per well and 12 per well | 6 per well and 8 per well and 9 per well | 12 per well and 19 per well | 8 per well and 16 per well | 7 per well and 13 per well | 5 per well and 9 per well | 0.983 | 0.7736 | 0.6932 | 5 and 8 and 2 | 6 and 4 and 1 | IC50 (P. vivax schizonts; [4]): 2900 to 4700 nM; Hypnozoites per well (P. vivax hypnozoites; 5 uM): 5 and 7 and 0; Hypnozoites per well (P. vivax hypnozoites; 10 uM): 1 and 14 and 0; Number of liverstage hypnozoites per well (P. vivax hypnozoites; [5]): 0 per well (2×) and 5 per well; Number of liverstage hypnozoites per well (P. vivax hypnozoites; [6]): 0 per well (2×) and 5 per well; Number of liverstage hypnozoites per well (P. vivax hypnozoites; [7]): 0 per well; Hypnozoites per well (P. vivax hypnozoites; 20 uM): 0 (2×) and 5; IC50 (P. vivax hypnozoites; [4]): 2100 nM; hypnozoites (fold change to DMSO) mean diff (P. vivax hypnozoites; isolate 1, 20 µM): 1.000; hypnozoites (fold change to DMSO) mean diff (P. vivax hypnozoites; isolate 2, 20 µM): 0.828; IC50 (HsNMT1): 1710 nM; IC50 (PvNMT; [8]): 23.4 nM; SI (PvNMT): 73
2 | Cc1n[nH]c(C)c1CCOc1cc(F)ccc1-c1ccnc(N2CCNCC2)c1 [Compound 12q] | 99.2906% and 100.564% | 95.6786% and 92.2225% | 91.8587% and 84.219% | 83.4135% and 96.0684% | 80.0613% and 94.8991% | 0 per well (2×) and 1 per well | 3 per well and 4 per well and 1 per well | 3 per well and 7 per well | 11 per well and 15 per well and 12 per well | 7 per well and 9 per well and 13 per well | 9 per well and 11 per well and 12 per well | 12 per well and 13 per well | 6 per well and 11 per well | 7 per well and 6 per well | 5 per well and 8 per well | 0.983 | 0.8491 | 0.6591 | 11 and 8 and 10 | 8 and 5 and 7 | IC50 (HepG2 cells): > 20000 nM; Schizonts per well (P. vivax schizonts; Isolate 2, 10 uM): 7 per well and 5 per well and 6 per well; IC50 (P. vivax schizonts): 2200 to 3500 nM; Hypnozoites per well (P. vivax hypnozoites; 5 uM): 5 and 6 and 3; Hypnozoites per well (P. vivax hypnozoites; 10 uM): 5 and 0 and 3; Number of liverstage hypnozoites per well (P. vivax hypnozoites; [5]): 0 per well (2×) and 1 per well; Number of liverstage hypnozoites per well (P. vivax hypnozoites; [6]): 1 per well (2×) and 0 per well; Number of liverstage hypnozoites per well (P. vivax hypnozoites; [7]): 0 per well; Hypnozoites per well (P. vivax hypnozoites; 20 uM): 1 (2×) and 0; hypnozoites (fold change to DMSO) mean diff (P. vivax hypnozoites; isolate 1, 20 µM): 0.939; hypnozoites (fold change to DMSO) mean diff (P. vivax hypnozoites; isolate 2, 20 µM): 0.931; IC50 (P. vivax hypnozoites): 4400 nM; IC50 (HsNMT1; read-out: HsNMT IC50, mean of two or more determinations): 1630 nM; SI (PvNMT): 22; IC50 (PvNMT; read-out: PvNMT IC50, mean of two or more determinations): 73 nM
3 | Cc1nn(C)c(C)c1CCOc1ccccc1-c1cccc(OCCN(C)C)c1 [Compound 26b] | 97.4196% and 92.7163% | 92.7942% and 91.1312% | 90.5335% and 86.8176% | 83.2575% and 84.0111% | 77.3069% and 77.3588% | 0 per well (2×) and 5 per well | 3 per well and 4 per well and 0 per well | 3 per well and 8 per well | 12 per well and 19 per well and 15 per well | 9 per well and 7 per well and 12 per well | 10 per well and 8 per well and 6 per well | 11 per well and 13 per well | 9 per well and 12 per well | 8 per well and 12 per well | 6 per well and 11 per well | 0.917 | 0.8679 | 0.625 | 10 and 6 and 12 | 4 and 8 and 7 | Schizonts per well (P. vivax schizonts; Isolate 2, 10 uM): 7 per well and 4 per well and 5 per well; IC50 (P. vivax schizonts; [4]): 3100 to 4100 nM; Hypnozoites per well (P. vivax hypnozoites; 5 uM): 7 and 5 and 9; Hypnozoites per well (P. vivax hypnozoites; 10 uM): 4 (2×) and 0; Number of liverstage hypnozoites per well (P. vivax hypnozoites; [5]): 1 per well (2×) and 2 per well; Number of liverstage hypnozoites per well (P. vivax hypnozoites; [6]): 3 per well and 1 per well and 2 per well; Number of liverstage hypnozoites per well (P. vivax hypnozoites; [7]): 0 per well; Hypnozoites per well (P. vivax hypnozoites; 20 uM): 3 and 1 and 2; IC50 (P. vivax hypnozoites; [4]): 4600 nM; hypnozoites (fold change to DMSO) mean diff (P. vivax hypnozoites; isolate 1, 20 µM): 0.908; hypnozoites (fold change to DMSO) mean diff (P. vivax hypnozoites; isolate 2, 20 µM): 0.793; IC50 (HsNMT1): 9850 nM; IC50 (PvNMT; [8]): 83.2 nM; SI (PvNMT): 118.4

— paper PMC10480161, “Identification of potent and selective N-myristoyltransferase inhibitors of Plasmodium vivax liver stage hypnozoites and schizonts” (Nature Communications, 2023)
